Source: PMC2008813 (British Journal of Cancer, 1973)

What was measured:
glucocorticoid receptor [1] = target: T1, glucocorticoid receptor (Rattus norvegicus, UniProt P06536); assay: competition with [3H]-triamcinolone acetonide, sucrose gradient centrifugation; conditions: read-out: % [3H]-triamcinolone acetonide bound at 1 umol/l
T1 construct: gene Nr3c1; native receptor in R3230AC tumour cytosol (8-9 S component)
T1 sequence (P06536 1-795): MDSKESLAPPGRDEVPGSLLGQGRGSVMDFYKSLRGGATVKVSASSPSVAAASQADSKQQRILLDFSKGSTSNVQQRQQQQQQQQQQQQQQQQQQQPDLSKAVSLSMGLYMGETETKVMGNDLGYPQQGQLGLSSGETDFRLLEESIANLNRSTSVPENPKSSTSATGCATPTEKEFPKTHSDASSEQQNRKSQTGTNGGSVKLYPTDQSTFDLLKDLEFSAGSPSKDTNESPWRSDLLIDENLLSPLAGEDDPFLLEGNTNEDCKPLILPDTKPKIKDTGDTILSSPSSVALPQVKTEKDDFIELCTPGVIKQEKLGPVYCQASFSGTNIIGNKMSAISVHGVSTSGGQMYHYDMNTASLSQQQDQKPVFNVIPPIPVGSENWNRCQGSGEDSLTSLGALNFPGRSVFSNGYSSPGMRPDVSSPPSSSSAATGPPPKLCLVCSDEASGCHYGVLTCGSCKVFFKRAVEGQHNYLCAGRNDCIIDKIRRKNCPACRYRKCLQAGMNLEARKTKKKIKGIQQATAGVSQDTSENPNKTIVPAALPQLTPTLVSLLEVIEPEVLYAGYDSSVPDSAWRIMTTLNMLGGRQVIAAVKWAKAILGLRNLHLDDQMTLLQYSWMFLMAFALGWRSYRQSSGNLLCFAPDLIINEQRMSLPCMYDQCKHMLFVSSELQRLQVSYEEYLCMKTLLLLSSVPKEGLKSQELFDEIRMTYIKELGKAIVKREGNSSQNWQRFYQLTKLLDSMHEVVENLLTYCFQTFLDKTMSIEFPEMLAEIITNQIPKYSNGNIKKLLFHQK

glucocorticoid receptor [2] = target: T1, glucocorticoid receptor; assay: as above; conditions: read-out: % [3H]-triamcinolone acetonide bound at 5 umol/l
glucocorticoid receptor [3] = target: T1, glucocorticoid receptor; assay: competition with [3H]-triamcinolone acetonide, sucrose gradient centrifugation (weak; no effect at […]); conditions: read-out: % [3H]-triamcinolone acetonide bound at 5 umol/l

C[C@]12C=CC(=O)C=C1CC[C@H]1[C@@H]3C[C@@H](O)[C@](O)(C(=O)CO)[C@@]3(C)C[C@H](O)[C@@]12F [Triamcinolone]
activity at 1 µM (glucocorticoid receptor [1]): 14%

C[C@]12CCC(=O)C=C1CC[C@@H]1[C@@H]2CC[C@@]2(C)[C@H]1CC[C@]2(O)C(=O)CO [cortexolone]
activity at 5 µM (glucocorticoid receptor [2]): 25%

C[C@]12CC[C@@H]3c4ccc(O)cc4CC[C@H]3[C@@H]1CC[C@@H]2O [Oestradiol-17β]
activity at 5 µM (glucocorticoid receptor [3]): 45%
